Where “and” joins values, the source holds several entries; their conditions need not be identical. Equal values may be shown once. Where a name gives a salt, the structure may show the parent alone.
What was measured:
[1] = test system: embryo/fetal development in pregnant Sprague Dawley rats; settings: 6 mpk subcutaneously once every three days, Gestation Days 6-18, pregnant rats
Description: The objective of this study design was to evaluate the potential effects of disclosed compounds on embryo/fetal development when given subcutaneously to pregnant rats once every three days during the critical period of organogenesis (Gestation Days 6-18). Female, Sprague Dawley rats, approximately 10 weeks of age, time bred, were ordered from a certified vendor and housed individually housed in stainless steel cages suspended over flush pans, on a 12-hour light-dark cycle (0700-1900) at 20-26° C. and 30-70% humidity. Rats were fed a standard rodent chow and provided water ad libitum. Rats were received and housed in the facility for a period of approximately 1 to 2 days.
Compounds were formulated using 100% DMSO mixed in Sterile Water for Injection, resulting in 2% DMSO solution in water. If necessary, due to limited solubility of a test article, a higher percentage of DMSO solution in water was used. Groups of 8 mated and presumed pregnant female rats were given subcutaneous doses of vehicle or test article, once every three days, beginning on Gestation Day 6 and ending on Gestation Day 18 (Days 6, 9, 12, 15, and 18), maintained two more days, and then euthanized and necropsied on Gestation Day 20. Body weights was recorded for all animals on Gestation Days 5 (purpose of randomization), 6, 9, 12, 15, 18, and 20 (scheduled euthanasia). Food consumption by weight was recorded on Gestation Days 6, 9, 12, 15, 18, and 20 (scheduled termination).
At necropsy, the dams were examined visually for external abnormalities including palpable masses. The abdominal, thoracic, and cranial cavities and their contents were examined for abnormalities and findings will be recorded. The reproductive tract were examined to record the number of ovarian corpora lutea, the number and location of uterine implantation sites noting the position of the cervix, and the number of early resorptions, late resorptions, live fetuses, and dead fetuses. For dead fetuses and late resorptions, crown-to-rump length and weight were recorded, if possible, and the fetus was discarded. For viable fetuses, weight, sex, and grossly visible external abnormalities were recorded.

[2] = test system: Diet Induced Obese (DIO) C57BL/6 mice; experiment: 10 day DIO mouse model (body weight, food intake, hematology, blood chemistry); format: in vivo
From the text: The objective of this study design was to investigate the efficacy of disclosed compounds in a 10 day DIO mouse model. Effects on body weight, food intake, hematology and blood chemistry were the primary readouts of this study design. […] Mice were fed Research Diets D12492 (60% Kcal fat, 20% Kcal carbohydrate and 20% protein) and provided water ad libitum. DIO mice were received and housed in the facility for approximately two weeks prior to the start of test article administration. On Day −4 or −3, mice were randomized into study groups based on body weight and body weights were continued to be recorded daily for the duration of the study. Daily food intake was assessed starting on Study Day −2 by weighing of the food with hopper together to avoid loss of food in transfer.
(§1) Compounds were formulated into a 100% DMSO stock (at 9 mg/mL) prior to the start, and further diluted into the target working concentration using the vehicle of 10% DMSO in water. Prior to test article administration, starting on Day −3 a dosing acclimation occured with all animals receiving a subcutaneous injection of vehicle (10% DMSO) only for 3 days. Starting on Day 1, test compounds or vehicle were administered based on individual body weight, subcutaneously, once a day for 10 days. All mice were sacrificed on Day 11, 24 hours following the final dosing on Day 10. After sacrifice, whole blood was collected and analyzed for hematology and blood chemistry parameters.
(§2) Compounds were tested vs. vehicle at various doses (1.0, 0.5, 0.3, 0.1, 0.03 mpk sc (mg per kg animal weight delivered subcutaneously), and the results are shown in Table 2 below.

[3] = test system: Sprague Dawley rats on high fat diet (DIO); experiment: 11 day rat DIO model (body weight, food intake, hematology, blood chemistry); format: in vivo
From the text: The objective of this study design is to investigate the efficacy of disclosed compounds in an 11 day rat DIO model used to screen compounds for pharmacologic efficacy on endpoints related to obesity and metabolism. Effects on body weight, food intake, hematology and blood chemistries were the primary readouts of this study design. […] Rats were fed Research Diets D12451 (45% High Fat) and provided water ad libitum. Rats were received and housed in the facility for at least two or three weeks prior to start of test article administration. On Day −4 or −3, rats were randomized into study groups based on body weight and body weights were continued to be recorded daily for the duration of the study. Daily food intake was assessed starting on Study Day −2 by weighing the hopper including the food to avoid loss of food in transfer.
as §1, with “for 11” for “for 10”, “All animals” for “All mice”, “11, approximately 2” for “11, 24”, “Day 11.” for “Day 10.”
as §2

SMILES | Rat Embryofetal @6 mpk [1] | further results
CO[C@@H]1[C@H](OC(=O)N2CC(CCN3CCOCC3)C2)CC[C@]2(CO2)[C@H]1[C@@]1(C)O[C@@H]1CC=C(C)C [Example 1, (3R,4S,5S,6R)-5-methoxy-4-((2R,3R)-2-methyl-3-(3-methylbut-2-en-1-yl)oxiran-2-yl)-1-oxaspiro[2.5]octan-6-yl 3-(2-morpholinoethyl)azetidine-1-carboxylate] | Negative | –
CO[C@@H]1[C@H](OC(=O)N2CC(CCN3CC(F)(F)C3)C2)CC[C@]2(CO2)[C@H]1[C@@]1(C)O[C@@H]1CC=C(C)C [Example 2, (3R,4S,5S,6R)-5-methoxy-4-((2R,3R)-2-methyl-3-(3-methylbut-2-enyl)oxiran-2-yl)-1-oxaspiro[2.5]octan-6-yl 3-(2-(3,3-difluoroazetidin-1-yl)ethyl)azetidine-1-carboxylate] | Negative | –
CO[C@@H]1[C@H](OC(=O)N2CC(CCN3CCC(O)CC3)C2)CC[C@]2(CO2)[C@H]1[C@@]1(C)O[C@@H]1CC=C(C)C [Example 7, (3R,4S,5S,6R)-5-methoxy-4-((2R,3R)-2-methyl-3-(3-methylbut-2-en-1-yl)oxiran-2-yl)-1-oxaspiro[2.5]octan-6-yl 3-(2-(4-hydroxypiperidin-1-yl)ethyl)azetidine-1-carboxylate] | – | DIO Mouse 10-day weight loss vs vehicle at indicated dose ([2]; DIO mouse, 0.3 mpk sc, once a day for 10 days): 1.8%
CO[C@@H]1[C@H](OC(=O)N2CC(CCN3CC4CCC(C3)O4)C2)CC[C@]2(CO2)[C@H]1[C@@]1(C)O[C@@H]1CC=C(C)C [Example 33, (4S,5S,6R)-5-methoxy-4-((2R,3R)-2-methyl-3-(3-methylbut-2-enyl)oxiran-2-yl)-1-oxaspiro[2.5]octan-6-yl 3-(2-(8-oxa-3-azabicyclo[3.2.1]octan-3-yl)ethyl)azetidine-1-carboxylate] | – | percent body weight loss vs vehicle at 0.3 mg/kg ([2]; 240 h, DIO mouse, 0.3 mpk sc, once a day for 10 days, read-out: DIO Mouse 10-day weight loss vs vehicle at indicated dose): 15.9%
CNC(=O)OC1CN(C(=O)O[C@@H]2CC[C@]3(CO3)[C@@H]([C@@]3(C)O[C@@H]3CC=C(C)C)[C@@H]2OC)C1 [Example 74, (3R,4S,5S,6R)-5-methoxy-4-((2R,3R)-2-methyl-3-(3-methylbut-2-enyl)oxiran-2-yl)-1-oxaspiro[2.5]octan-6-yl 3-(methylcarbamoyloxy)azetidine-1-carboxylate] | Negative | –
CO[C@@H]1[C@H](OC(=O)N2CC(OC(=O)N3CCN(C)CC3)C2)CC[C@]2(CO2)[C@H]1[C@@]1(C)O[C@@H]1CC=C(C)C [Example 78, 1-(((3R,4S,5S,6R)-5-methoxy-4-((2R,3R)-2-methyl-3-(3-methylbut-2-enyl)oxiran-2-yl)-1-oxaspiro[2.5]octan-6-yloxy)carbonyl)azetidin-3-yl 4-methylpiperazine-1-carboxylate] | Positive | –
CO[C@@H]1[C@H](OC(=O)N2CC(OC(=O)N3CCN(CC(F)(F)F)CC3)C2)CC[C@]2(CO2)[C@H]1[C@@]1(C)O[C@@H]1CC=C(C)C [Example 81, 1-(((3R,4S,5S,6R)-5-methoxy-4-((2R,3R)-2-methyl-3-(3-methylbut-2-enyl)oxiran-2-yl)-1-oxaspiro[2.5]octan-6-yloxy)carbonyl)azetidin-3-yl 4-(2,2,2-trifluoroethyl)piperazine-1-carboxylate] | Positive | –
CCN(CC)CCNC(=O)CCC1CN(C(=O)O[C@@H]2CC[C@]3(CO3)[C@@H]([C@@]3(C)O[C@@H]3CC=C(C)C)[C@@H]2OC)C1 [Example 88, (3R,4S,5S,6R)-5-methoxy-4-((2R,3R)-2-methyl-3-(3-methylbut-2-enyl)oxiran-2-yl)-1-oxaspiro[2.5]octan-6-yl 3-(3-(2-(diethylamino)ethylamino)-3-oxopropyl)azetidine-1-carboxylate formate] | Positive | DIO Mouse 10-day weight loss vs vehicle at indicated dose ([2]; mouse, in vivo, sc, 0.3 mg/kg): 9%; DIO Rat 11-day weight loss vs vehicle at indicated dose ([3]; rat, in vivo, sc, 0.3 mg/kg): 4.4%
CO[C@@H]1[C@H](OC(=O)N2CC(Cc3ccc(C)nc3)C2)CC[C@]2(CO2)[C@H]1[C@@]1(C)O[C@@H]1CC=C(C)C [Example 101, (3R,4S,5S,6R)-5-methoxy-4-((2R,3R)-2-methyl-3-(3-methylbut-2-enyl)oxiran-2-yl)-1-oxaspiro[2.5]octan-6-yl 3-((6-methylpyridin-3-yl)methyl)azetidine-1-carboxylate] | Positive | –
CCN(CC)CCC1CN(C(=O)O[C@@H]2CC[C@]3(CO3)[C@@H]([C@@]3(C)O[C@@H]3CC=C(C)C)[C@@H]2OC)C1 [Example 103, (3R,4S,5S,6R)-5-methoxy-4-((2R,3R)-2-methyl-3-(3-methylbut-2-enyl)oxiran-2-yl)-1-oxaspiro[2.5]octan-6-yl 3-(2-(diethylamino)ethyl)azetidine-1-carboxylate] | Positive | –
CCN(CC)CCCC1CN(C(=O)O[C@@H]2CC[C@]3(CO3)[C@@H]([C@@]3(C)O[C@@H]3CC=C(C)C)[C@@H]2OC)C1 [Example 104, (3R,4S,5S,6R)-5-methoxy-4-((2R,3R)-2-methyl-3-(3-methylbut-2-enyl)oxiran-2-yl)-1-oxaspiro[2.5]octan-6-yl 3-(3-(diethylamino)propyl)azetidine-1-carboxylate] | Positive | –
CCN(CC)CCC1CCN1C(=O)O[C@@H]1CC[C@]2(CO2)[C@@H]([C@@]2(C)O[C@@H]2CC=C(C)C)[C@@H]1OC (stereo partly drawn) [Example 106, (3R,4S,5S,6R)-5-methoxy-4-((2R,3R)-2-methyl-3-(3-methylbut-2-enyl)oxiran-2-yl)-1-oxaspiro[2.5]octan-6-yl 2-(2-(diethylamino)ethyl)azetidine-1-carboxylate] | – | DIO Mouse 10-day weight loss vs vehicle at indicated dose ([2]; DIO mouse, 0.1 mpk sc, once a day for 10 days): 2%; DIO Mouse 10-day weight loss vs vehicle at indicated dose ([2]; DIO mouse, 0.3 mpk sc, once a day for 10 days, 0.3 mg/kg): 10.8% and 0.8%; DIO Rat 11-day weight loss vs vehicle at indicated dose ([3]; DIO rat, 0.5 mpk sc, once a day for 11 days): 4.82%
CO[C@@H]1[C@H](OC(=O)/C=C/c2ccc(OCCN(C)C)cc2)CC[C@]2(CO2)[C@H]1[C@@]1(C)O[C@@H]1CC=C(C)C [compound A, [(3R,6R,7S,8S)-7-methoxy-8-[(2R,3R)-2-methyl-3-(3-methylbut-2-enyl)oxiran-2-yl]-2-oxaspiro[2.5]octan-6-yl] (E)-3-[4-[2-(dimethylamino)ethoxy]phenyl]prop-2-enoate, reference compound] | Positive | –

Source: patent publication US20190084968A1, “FUMAGILLOL HETEROCYCLIC COMPOUNDS AND METHODS OF MAKING AND USING SAME” (Zafgen, Inc., priority 2015, published 2019)
